Source: US10899733B2, “Inhibitors of PARPs that catalyze mono-ADP-ribosylation” (OREGON HEALTH & SCIENCE UNIVERSITY, priority 2017, dated 2021)
pIC50: −log10 of the molar value. Several values for one entry are separate records, joined by “and”; a condition that tells them apart may be missing. Equal entries are not always repeated.

Assays:
[1] = biological target: T1, PARP10cat (Homo sapiens, UniProt Q53GL7); assay: Inhibition of PARP10cat-mediated ADP-ribosylation of SRPK2 using NAD+ (100 μM); assay type: biochemical; settings: for pIC50 / PARP10cat pIC50 ± S.E.M.: ADP-ribosylation of SRPK2, NAD+ 100 μM; for PARP11/PARP10: ratio of IC50 values, PARP11 over PARP10cat; for increase in potency for PARP10 compared to comparator compound: 8 and 3 compared to unsubstituted 1, 14 compared to 3; for improvement in selectivity for PARP10 over PARP11 compared to parent compound: 12 vs 8, 14 vs 3, 20, 22 vs 16, 23, 24 vs 15
T1 sequence (Q53GL7 806-1025 limits assumed): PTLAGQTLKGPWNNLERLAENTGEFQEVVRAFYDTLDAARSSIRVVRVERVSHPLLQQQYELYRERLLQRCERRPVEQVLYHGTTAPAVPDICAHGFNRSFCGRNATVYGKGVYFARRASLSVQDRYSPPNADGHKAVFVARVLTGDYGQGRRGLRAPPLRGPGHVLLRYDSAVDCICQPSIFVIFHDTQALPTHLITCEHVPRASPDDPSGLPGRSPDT

[2] = biological target: T2, PARP11 (Homo sapiens, UniProt Q9NR21); assay: Inhibition of PARP11-mediated ADP-ribosylation of SRPK2 using NAD+ (100 μM); assay type: biochemical; settings: for pIC50 / PARP11 pIC50 ± S.E.M.: ADP-ribosylation of SRPK2, NAD+ 100 μM
T2 sequence (Q9NR21 1-338): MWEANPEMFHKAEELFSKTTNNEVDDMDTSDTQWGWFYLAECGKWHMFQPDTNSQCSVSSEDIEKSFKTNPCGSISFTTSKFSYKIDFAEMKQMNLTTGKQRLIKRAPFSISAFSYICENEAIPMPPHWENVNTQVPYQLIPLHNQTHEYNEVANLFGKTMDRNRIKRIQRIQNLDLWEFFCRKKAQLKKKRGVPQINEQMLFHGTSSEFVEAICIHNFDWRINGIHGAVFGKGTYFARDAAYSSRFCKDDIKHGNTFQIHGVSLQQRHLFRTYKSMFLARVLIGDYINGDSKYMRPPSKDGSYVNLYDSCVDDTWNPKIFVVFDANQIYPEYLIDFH

[3] = Aqueous solubility observed when assaying; assay type: physicochemical; settings: observed in assays

| SMILES | pIC50 [1] | PARP10cat pIC50 ± S.E.M. [1] | PARP11/PARP10 [1] | pIC50 [2] | PARP11 pIC50 ± S.E.M. [2] | selectivity for PARP10 over PARP11 [1] | increase in potency for PARP10 compared to comparator compound [1] [fold] | selectivity for PARP11 over PARP10 [2] [fold] | improvement in selectivity for PARP10 over PARP11 compared to parent compound [1] [fold] | decrease in potency for PARP11 compared to compound 8 [2] [fold] | aqueous solubility [3] |
| --- | --- | --- | --- | --- | --- | --- | --- | --- | --- | --- | --- |
| O=C1NCCc2c(Br)cccc21 [Compound 2] | 5.00 | 4.99 ± 0.04 | 0.29 | 5.54 | 5.54 ± 0.04 | – | – | – | – | – | – |
| Cc1cccc2c1CCNC2=O [Compound 3, 5-methyl-dq] | 5.07 | 5.01 ± 0.03 | 0.24 | 5.68 | 5.67 ± 0.05 | 0.24 fold | 8 | – | – | – | – |
| O=C1NCCc2c1cccc2-c1ccccc1 [Compound 4] | 4.46 | 4.46 ± 0.04 | 0.03 | 5.92 | 5.93 ± 0.04 | – | – | 30 | – | – | – |
| O=C1NCCc2cc(Br)ccc21 [Compound 5] | 4.77 | 4.77 ± 0.03 | 0.79 | 4.87 | 4.87 ± 0.03 | – | – | – | – | – | – |
| Cc1ccc2c(c1)CCNC2=O [Compound 6] | 4.48 | 4.48 ± 0.04 | 1.0 | 4.47 | 4.47 ± 0.06 | – | – | – | – | – | – |
| O=C1NCCc2cc(Cc3ccccc3)ccc21 [Compound 7] | – | – | <0.33 | 4.78 | 4.78 ± 0.03 | – | – | – | – | – | – |
| O=C1NCCc2cc(-c3ccccc3)ccc21 [Compound 8] | 5.60 | 5.61 ± 0.03 | 3.5 | 5.06 | 5.06 ± 0.03 | 4 fold | 28 | – | – | – | – |
| O=C1NCCc2cc(-c3cccc(F)c3)ccc21 [Compound 9] | 5.85 | 5.85 ± 0.03 | 4.4 | 5.21 | 5.22 ± 0.04 | – | – | – | – | – | – |
| O=C1NCCc2cc(-c3cccc(Cl)c3)ccc21 [Compound 10] | 5.96 | 5.95 ± 0.02 | 5.3 | 5.24 | 5.24 ± 0.03 | – | – | – | – | – | – |
| Cc1cccc(-c2ccc3c(c2)CCNC3=O)c1 [Compound 11] | 5.68 | 5.67 ± 0.02 | 2.2 | 5.34 | 5.34 ± 0.03 | – | – | – | – | – | – |
| O=C1NCCc2cc(-c3cccc(C(F)(F)F)c3)ccc21 [Compound 12] | 5.64 | 5.65 ± 0.03 | 7.6 | 4.76 | 4.76 ± 0.04 | 8 fold | – | – | 2 | 2 | – |
| Cc1c(-c2ccccc2)ccc2c1CCNC2=O [Compound 14, 5-methyl-6-phenyl-3,4-dihydroisoquinolin-1(2H)-one] | – | 5.80 ± 0.03 | 17 | 4.58 | 4.58 ± 0.07 | 17 fold | 5 | – | 70 | – | aqueous solubility issues at higher concentrations |
| Cc1c(-c2cccnc2)ccc2c1CCNC2=O [Compound 15, 5-methyl-6-(pyridiny-3-yl)-3,4-dihydroisoquinolin-1(2H)-one] | 5.60 | 5.60 ± 0.04 | 12 | 4.52 | 4.52 ± 0.06 | 12 fold | – | – | – | – | increased solubility compared to 14 |
| Cc1c(-c2ccncc2)ccc2c1CCNC2=O [Compound 16, 5-methyl-6-(pyridiny-4-yl)-3,4-dihydroisoquinolin-1(2H)-one] | 5.85 | 5.84 ± 0.03 | 15 | 4.67 | 4.67 ± 0.04 | 15 fold | – | – | – | – | increased solubility compared to 14 |
| Cc1c(-c2ccc3[nH]ccc3c2)ccc2c1CCNC2=O [Compound 17, 6-(1H-indol-5-yl)-5-methyl-3,4-dihydroisoquinolin-1(2H)-one] | 5.96 | 5.96 ± 0.03 | 3.8 | 5.38 | 5.38 ± 0.04 | 4 fold | – | – | – | – | – |
| Cc1c(-c2cnc3[nH]ccc3c2)ccc2c1CCNC2=O [Compound 18, 5-methyl-6-(1H-pyrrolo[2,3-b]pyridin-5-yl)-3,4-dihydroisoquinolin-1(2H)-one] | 6.15 | 6.15 ± 0.03 | 17 | 4.92 | 4.92 ± 0.05 | 17 fold | – | – | – | – | – |
| Cc1c(-c2cnc3ccccc3c2)ccc2c1CCNC2=O [Compound 19, 5-methyl-6-(quinolin-3-yl)-3,4-dihydroisoquinolin-1(2H)-one] | 5.74 | 5.75 ± 0.02 | 7.8 | 4.85 | 4.86 ± 0.04 | 8 fold | – | – | – | – | – |
| Cc1c(-c2ccnc(F)c2)ccc2c1CCNC2=O [Compound 20, 6-(2-fluoropyridin-4-yl)-5-methyl-3,4-dihydroisoquinolin-1(2H)-one] | 5.72 | 5.71 ± 0.03 | 24 | 4.35 | 4.35 ± 0.05 | 24 fold | – | – | ~2 | – | – |
| Cc1c(-c2ccnc(Cl)c2)ccc2c1CCNC2=O [Compound 21, 6-(2-chloropyridin-4-yl)-5-methyl-3,4-dihydroisoquinolin-1(2H)-one] | 5.74 | 5.76 ± 0.03 | 15 | 4.57 | 4.57 ± 0.02 | retained similar selectivity | – | – | – | – | – |
| Cc1c(-c2cncc(F)c2)ccc2c1CCNC2=O [Compound 23, 6-(5-fluoropyridin-3-yl)-5-methyl-3,4-dihydroisoquinolin-1(2H)-one] | 5.66 | 5.66 ± 0.02 | 25 | 4.26 | 4.23 ± 0.03 | 25 fold | – | – | – | – | – |
| Cc1c(-c2cncc(C(F)(F)F)c2)ccc2c1CCNC2=O [Compound 24, 5-methyl-6-(5-(trifluoromethyl)pyridin-3-yl)-3,4-dihydroisoquinolin-1(2H)-on] | – | 5.57 ± 0.03 | 34 | 4.04 | 4.04 ± 0.03 | 34 fold and 35 fold | – | – | – | – | – |
| NC(=O)c1ccc(Oc2ccc(C(N)=O)cc2)cc1 [OUL35, 4,4′-oxydibenzamide, reference compound] | – | – | – | 5.68 | 5.68 ± 0.03 | – | – | – | – | – | – |
